Measurements taken from patent US20230075368A1, “IDENTIFICATION OF AN EGFR-BIN3 PATHWAY THAT ACTIVELY SUPPRESSES INVASION AND REDUCES TUMOR SIZE IN GLIOBLASTOMA” (The United States Govemment as represented by the …, priority 2020, published 2023).
Values belong to the molecule of their own block, whether it stands above or below them.

Tests used:
[1] = tested on: STAT1; assay: Western blot of pSTAT1 and STAT1; type: cell-based, human; details: tofacitinib 1 μM, 24 hours; GBM12 and GBM6
Description: (§1) Mayo PDX cells were serum starved overnight. Following treatment for specific time, cells were harvested and lysed. The human glioblastoma tissues were ground in liquid nitrogen and then were lysed. […] TGFα antibody was from R&D system.
(§2) . . . […] A similar experiment was performed in GBM6 (FIG. 18F). […] The Western blot images are representative of three independent biological replicates. Actin served as loading control. Data are represented as mean±SEM from three independent experiments. *P<0.05, **P<0.01, ***P<0.001, unpaired two-tailed t-test.

[2] = tested on: HB-EGF; assay: ELISA for HB-EGF in supernatants; type: cell-based, human; details: tofacitinib 1 μM, 72 hours; GBM12 and GBM6
Description: To determine EGFR ligands in medium, cells were serum starved for 48 hours, supernatants were collected and concentrated 5- to 10-fold with Pierce protein concentrator (ThermoFisher). HB-EGF, TGFα and EGF protein concentration in supernatant and tumor tissue extracts was determined by ELISA using the corresponding commercial HB-EGF, TGFα and EGF protein detection kits (ThermoFisher) per the manufacturer's instructions.

[3] = tested on: STAT3; assay: Western blot of pSTAT3 and STAT3; type: cell-based, human; details: tofacitinib 1 μM, 24 hours; GBM12 and GBM6
Description: as §1, §2

[4] = tested on: GBM12; assay: Cignal 45-Pathway Reporter Array; type: cell-based, human; details: tofacitinib 1 μM, 24 hours
[5] = tested on: DOCK7; assay: GEF activity of DOCK7 (Cdc42 G15A agarose pull down); type: cell-based, human; details: EGF, 24 hours; GBM12 and GBM6
Description: To measure GEF activity of DOCK7, cell lysates were incubated with 40 μl Cdc42 G15A agarose beads (ab211185, Abcam) at 4° C. for 1 hour. The agarose beads were then washed boiled and the supernatants were used to immunoblot with DOCK7 antibody to determine levels of active DOCK7.

[6] = tested on: BIN3 promoter; assay: ChIP assay of EGR1 occupancy; type: cell-based, human; details: EGF, 24 hours; GBM12 and GBM6
Description: Chromatin immunoprecipitation (ChIP) assays were performed using a ChIP assay kit (Upstate Biotechnology, Lake Placid, N.Y., USA). Cells were treated with or without EGF for the indicated time points or transfected with indicated vectors for 48 hours followed by cell fixation, lysis, chromatin shearing, antibody incubation and washing according to the manufacturer's protocol. ChIP grade anti-EGR1 (4153) or anti-Nanog antibody (5232) antibody from Cell Signaling Technology (Danvers, Mass.) was used to selectively precipitate the corresponding protein-DNA complex. RT-PCR was performed using ViiA 7 Real-Time PCR System (Applied Biosystems) to measure the relative amounts of ChIP DNA and results were quantified relative to inputs. The data are expressed as percentage of input. Following are primer sets: BIN3_Forward: 5′-[…]-3′ (SEQ ID NO:1); BIN3_Reverse: 5′-[…]-3′ (SEQ ID NO:2); EMP1_Forward: 5′-[…]-3′ (SEQ ID NO:3); EMP1_Reverse: 5′-[…]-3′ (SEQ ID NO:4).
Referring to FIG. 8A-D, EGF induces EGR1 activity and enrichment on the BIN3 promoter. […] Cells were transiently transfected with EGR1 firefly luciferase reporter vector and Renilla luciferase vector for 48 hours, EGF was added for additional 2 or 24 hours prior to measuring luciferase activity. […] Cells were treated with or without EGF for 24 hours. ChIP assay was performed as described elsewhere herein. IgG was used as negative control. […]

[7] = tested on: GBM12 cells; assay: Intravital microscopy of GBM cell motility through cranial window; type: in vivo, mice; details: 10 ng EGF injected through cranial window 24 hours before imaging
Description: Two-photon laser intravital microscope combined with cranial window surgery was used to observe cellular movement in vivo. Female athymic nude mice were anesthetized with 2.5% isoflourane and secured in a stereotactic frame. The head was shaved and the scalp was cut in a circular manner. The periosteum was scraped and a drill was used to create a circular cranial window over the front and parietal bone. 10 μL of 1×10^6 cells/ml GBM12 stably expressing H2B-GFP were implanted at a depth of 0.5 mm. Following implantation, a 5 mm silicone-based polydimethylsiloxane (PDMS) coverslip was glued to the bone surrounding the cranial window. PDMS (SYLGARD184, Sigma-Aldrich) film was prepared as described by Heo et al. (Heo, et al. (2016) A soft, transparent, freely accessible cranial window for chronic imaging and electrophysiology, Sci Rep 6: 27818). PDMS coverslip allows for easy insertion of Hamilton needle into the brain tissue for EGF delivery. Dental cement was applied on the skull surface, covering the edge of the coverslip. Seven days after surgery and 24 hours prior to imaging procedure, 10 ng EGF or vehicle was injected into the mice brain through cranial window. […]
Referring to FIG. 14A and FIG. 14B, EGF reduces cell migration speed in vivo detected by intravital microscopy. […] The cell velocity of around 200 cells per mouse were evaluated. […]

[8] = tested on: U251MG and U87MG cell lines; assay: Matrigel invasion assay in established GBM lines; type: cell-based, human; details: for cell invasion: EGF 50 ng/ml
Description: Invasion status of cells was tested with Matrigel Boyden chamber assays (Fisher). 1×10^5 cells were plated on BD BioCoat Matrigel invasion chambers. 24 hours after treatment with drugs, invaded cells were stained with the HEMA-3 kit (Fisher). Invaded cells were counted in 4-5 random fields.
Referring to FIG. 6A-E, EGF inhibits EGFR overexpression induced cell invasion. […] Tetracycline induced EGFR overexpression was confirmed by Western blotting (FIG. 6E). The Western blot images are representative of three independent biological replicates. Actin served as loading control. Data are represented as mean±SEM from three independent experiments. **P<0.01, ***P<0.001, n.s. not significant, unpaired two-tailed t-test.

[9] = tested on: glioma cells; details: Ramnarain et al. 2006, cited from earlier work
[10] = tested on: Mayo PDX cells; assay: Matrigel invasion assay; type: cell-based, human; details: low-dose EGF (5 ng/ml), 24 hours; GBM12 and GBM6

Molecule: C[C@@H]1CCN(C(=O)CC#N)C[C@@H]1N(C)c1ncnc2[nH]ccc12 [tofacitinib]
phosphorylation of STAT1 [1]: blocks phosphorylation | HB-EGF in supernatant [2]: upregulates | phosphorylation of STAT3 [3]: blocks phosphorylation | transcription factor activity [4]: upregulates multiple transcription factors

EGR1 occupancy of BIN3 promoter [6]: occupies the BIN3 promoter
Molecule: EGF: Recombinant human EGF (AF-100) from Peprotech; EGFR ligand
DOCK7 activity [5]: decreased activity | movement of glioma cells in live mouse brain [7]: almost complete cessation of movement | cell invasion ([8]; EGFR overexpressed in U87MG and U251MG): decreased invasion | cell invasion ([8]; U251MG and U87MG with low endogenous EGFR): increased invasiveness | invasion increased by inducible EGFRwt expression ([8]; tetracycline induced EGFR overexpressing U251MG cells, plus EGF): abolished | BIN3 gene upregulation when EGF is added ([9]; EGFR overexpressing glioma cells): 19.2 fold | EGR1 gene induction with ligand-activated EGFR signaling [9]: 13.68 fold | cell invasion [10]: suppressed invasion
